Results from US20230183292A1, “IMMUNOMODULATORS” (priority 2020, published 2023).
Where two headings read alike, the source gives them in different places. Starred links: 1 amine or outer side, 2 acyl side, 3 side chain; linkers in the order of their positions; H or OH if unused. Positions of bridges follow the written chain, without caps; N, C: chain ends. Non-standard residues stand in square brackets, D forms with d. Residues, ends and D or L forms follow the SMILES beside them. *: point of attachment. Cholyl = C[C@H](CCC(=O)*)[C@H]1CC[C@H]2[C@@H]3[C@H](O)C[C@@H]4C[C@H](O)CC[C@]4(C)[C@H]3C[C@H](O)[C@]12C; X18 = CCN(CC)CCCNC(=O)Cn1cc(C[C@H](N[*:1])C(=O)[*:2])c2ccccc21; Hyp = O=C(O)[C@@H]1C[C@@H](O)CN1; NMeNle = CCCC[C@H](NC)C(=O)O; NMeA = CN[C@@H](C)C(=O)O; Dab = NCC[C@H](N)C(=O)O; Dap = NC[C@H](N)C(=O)O

Target: T1, PD-1/PD-L1 (Homo sapiens, UniProt Q9NZQ7)
T1 construct: TVMV protease site (C); made in house; host or cells: HEK293T cells
T1 sequence (Q9NZQ7 18-239): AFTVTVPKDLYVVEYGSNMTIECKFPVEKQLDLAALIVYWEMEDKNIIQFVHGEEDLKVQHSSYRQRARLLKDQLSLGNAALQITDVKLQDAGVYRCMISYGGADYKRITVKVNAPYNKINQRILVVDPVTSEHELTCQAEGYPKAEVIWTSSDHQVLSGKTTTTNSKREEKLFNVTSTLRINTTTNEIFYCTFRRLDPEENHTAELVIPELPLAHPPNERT
Experiment: PD-1/PD-L1 Homogenous Time-Resolved Fluorescence (HTRF) binding assay
Details: PD-1-Ig 20 nM
Method in brief: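 Inhibitors pre-incubated 15 min with PD-L1-His (10 nM final) in dPBS, 0.1% BSA, 0.05% Tween-20, then 15 min with PD-1-Ig (20 nM final). Eu-cryptate anti-Ig (1 nM) and APC anti-His (20 nM) added, 30 min equilibration; HTRF 665/620 nm ratio. Human ECD proteins from HEK293T.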

[1] = PD-L1-His 10 nM, read-out: HTRF IC50

Row | SMILES | IC50 [1] [nM] | IC50 (HTRF IC50, PD-L1-His 10 nM) [nM]
1 | CCCC[C@H]1C(=O)N(C)[C@@H](CCCC)C(=O)N[C@@H](CC(C)C)C(=O)N[C@H](C(=O)NCC(N)=O)CSCC(=O)N[C@@H](Cc2ccc(O)cc2)C(=O)N(C)[C@@H](C)C(=O)N[C@@H](CC(N)=O)C(=O)N2CCC[C@H]2CN[C@@H](CNC(=O)CC[C@@H](C)[C@H]2CC[C@H]3[C@@H]4[C@H](O)C[C@@H]5C[C@H](O)CC[C@]5(C)[C@H]4C[C@H](O)[C@]23C)C(=O)N[C@@H](CC(C)C)C(=O)N2C[C@H](O)C[C@H]2C(=O)N[C@@H](Cc2c[nH]c3ccccc23)C(=O)N[C@@H](CCNC(=O)CC[C@@H](C)[C@H]2CC[C@H]3[C@@H]4[C@H](O)C[C@@H]5C[C@H](O)CC[C@]5(C)[C@H]4C[C@H](O)[C@]23C)C(=O)N[C@@H](Cc2cn(CC(=O)OC3CC3)c3ccccc23)C(=O)N1C [Example 2003] | 970 | 
2 | CCCC[C@H]1C(=O)N(C)[C@@H](CCCC)C(=O)N[C@@H](CC(C)C)C(=O)N[C@H](C(=O)NCC(N)=O)CSCC(=O)N[C@@H](Cc2ccc(O)cc2)C(=O)N(C)[C@@H](C)C(=O)N[C@@H](CC(N)=O)C(=O)N2CCC[C@H]2CN[C@@H](CNC(=O)CC[C@@H](C)[C@H]2CC[C@H]3[C@@H]4[C@H](O)C[C@@H]5C[C@H](O)CC[C@]5(C)[C@H]4C[C@H](O)[C@]23C)C(=O)N[C@@H](CC(C)C)C(=O)N2C[C@H](O)C[C@H]2C(=O)N[C@@H](Cc2c[nH]c3ccccc23)C(=O)N[C@@H](CCNC(=O)CC[C@@H](C)[C@H]2CC[C@H]3[C@@H]4[C@H](O)C[C@@H]5C[C@H](O)CC[C@]5(C)[C@H]4C[C@H](O)[C@]23C)C(=O)N[C@@H](Cc2cn(CC(=O)OCCCO)c3ccccc23)C(=O)N1C [Example 2004] | 350 | 
3 | CCCC[C@H]1C(=O)N(C)[C@@H](CCCC)C(=O)N[C@@H](CC(C)C)C(=O)N[C@H](C(=O)NCC(N)=O)CSCC(=O)N[C@@H](Cc2ccc(O)cc2)C(=O)N(C)[C@@H](C)C(=O)N[C@@H](CC(N)=O)C(=O)N2CCC[C@H]2CN[C@@H](CNC(=O)CC[C@@H](C)[C@H]2CC[C@H]3[C@@H]4[C@H](O)C[C@@H]5C[C@H](O)CC[C@]5(C)[C@H]4C[C@H](O)[C@]23C)C(=O)N[C@@H](CC(C)C)C(=O)N2C[C@H](O)C[C@H]2C(=O)N[C@@H](Cc2c[nH]c3ccccc23)C(=O)N[C@@H](CCNC(=O)CC[C@@H](C)[C@H]2CC[C@H]3[C@@H]4[C@H](O)C[C@@H]5C[C@H](O)CC[C@]5(C)[C@H]4C[C@H](O)[C@]23C)C(=O)N[C@@H](Cc2cn(CC(=O)OCCO)c3ccccc23)C(=O)N1C [Example 2005] | 210 | 
4 | CCCC[C@H]1C(=O)N(C)[C@@H](CCCC)C(=O)N[C@@H](CC(C)C)C(=O)N[C@H](C(=O)NCC(N)=O)CSCC(=O)N[C@@H](Cc2ccc(O)cc2)C(=O)N(C)[C@@H](C)C(=O)N[C@@H](CC(N)=O)C(=O)N2CCC[C@H]2CN[C@@H](CNC(=O)CC[C@@H](C)[C@H]2CC[C@H]3[C@@H]4[C@H](O)C[C@@H]5C[C@H](O)CC[C@]5(C)[C@H]4C[C@H](O)[C@]23C)C(=O)N[C@@H](CC(C)C)C(=O)N2C[C@H](O)C[C@H]2C(=O)N[C@@H](Cc2c[nH]c3ccccc23)C(=O)N[C@@H](CCNC(=O)CC[C@@H](C)[C@H]2CC[C@H]3[C@@H]4[C@H](O)C[C@@H]5C[C@H](O)CC[C@]5(C)[C@H]4C[C@H](O)[C@]23C)C(=O)N[C@@H](Cc2cn(CC(=O)OCCOCCO)c3ccccc23)C(=O)N1C [Example 2006] | 200 | 
5 | CCCC[C@H]1C(=O)N(C)[C@@H](CCCC)C(=O)N[C@@H](CC(C)C)C(=O)N[C@H](C(=O)NCC(N)=O)CSCC(=O)N[C@@H](Cc2ccc(O)cc2)C(=O)N(C)[C@@H](C)C(=O)N[C@@H](CC(N)=O)C(=O)N2CCC[C@H]2CN[C@@H](CNC(=O)CC[C@@H](C)[C@H]2CC[C@H]3[C@@H]4[C@H](O)C[C@@H]5C[C@H](O)CC[C@]5(C)[C@H]4C[C@H](O)[C@]23C)C(=O)N[C@@H](CC(C)C)C(=O)N2C[C@H](O)C[C@H]2C(=O)N[C@@H](Cc2c[nH]c3ccccc23)C(=O)N[C@@H](CCNC(=O)CC[C@@H](C)[C@H]2CC[C@H]3[C@@H]4[C@H](O)C[C@@H]5C[C@H](O)CC[C@]5(C)[C@H]4C[C@H](O)[C@]23C)C(=O)N[C@@H](Cc2cn(CC(=O)Oc3ccccc3)c3ccccc23)C(=O)N1C [Example 2007] |  | 720
6 | CCCC[C@H]1C(=O)N(C)[C@@H](CCCC)C(=O)N[C@@H](CC(C)C)C(=O)N[C@H](C(=O)NCC(N)=O)CSCC(=O)N[C@@H](Cc2ccc(O)cc2)C(=O)N(C)[C@@H](C)C(=O)N[C@@H](CC(N)=O)C(=O)N2CCC[C@H]2C(=O)N[C@@H](CNC(=O)CC[C@@H](C)[C@H]2CC[C@H]3[C@@H]4[C@H](O)C[C@@H]5C[C@H](O)CC[C@]5(C)[C@H]4C[C@H](O)[C@]23C)C(=O)N[C@@H](CC(C)C)C(=O)N2C[C@H](O)C[C@H]2C(=O)N[C@@H](Cc2c[nH]c3ccccc23)C(=O)N[C@@H](CCNC(=O)CC[C@@H](C)[C@H]2CC[C@H]3[C@@H]4[C@H](O)C[C@@H]5C[C@H](O)CC[C@]5(C)[C@H]4C[C@H](O)[C@]23C)C(=O)N[C@@H](Cc2cn(CC(=O)NCCCN(CC)CC)c3ccccc23)C(=O)N1C [Example 2008] ({CH2CO}-Y[NMeA]NP[Dap](Cholyl)L[Hyp]W[Dab](Cholyl)[X18][NMeNle][NMeNle]LCG-NH2; thioether N-14) | 95 | 
7 | CCCC[C@H]1C(=O)N(C)[C@@H](CCCC)C(=O)N[C@@H](CC(C)C)C(=O)N[C@H](C(=O)NCC(N)=O)CSCC(=O)N[C@@H](Cc2ccc(O)cc2)C(=O)N(C)[C@@H](C)C(=O)N[C@@H](CC(N)=O)C(=O)N2CCC[C@H]2CN[C@@H](CNC(=O)CC[C@@H](C)[C@H]2CC[C@H]3[C@@H]4[C@H](O)C[C@@H]5C[C@H](O)CC[C@]5(C)[C@H]4C[C@H](O)[C@]23C)C(=O)N[C@@H](CC(C)C)C(=O)N2C[C@H](O)C[C@H]2C(=O)N[C@@H](Cc2c[nH]c3ccccc23)C(=O)N[C@@H](CCNC(=O)CC[C@@H](C)[C@H]2CC[C@H]3[C@@H]4[C@H](O)C[C@@H]5C[C@H](O)CC[C@]5(C)[C@H]4C[C@H](O)[C@]23C)C(=O)N[C@@H](Cc2cn(CC(=O)NC3CC3)c3ccccc23)C(=O)N1C [Example 2009] | 2900 | 
8 | CCCC[C@H]1C(=O)N(C)[C@@H](CCCC)C(=O)N[C@@H](CC(C)C)C(=O)N[C@H](C(=O)NCC(N)=O)CSCC(=O)N[C@@H](Cc2ccc(O)cc2)C(=O)N(C)[C@@H](C)C(=O)N[C@@H](CC(N)=O)C(=O)N2CCC[C@H]2CN[C@@H](CNC(=O)CC[C@@H](C)[C@H]2CC[C@H]3[C@@H]4[C@H](O)C[C@@H]5C[C@H](O)CC[C@]5(C)[C@H]4C[C@H](O)[C@]23C)C(=O)N[C@@H](CC(C)C)C(=O)N2C[C@H](O)C[C@H]2C(=O)N[C@@H](Cc2c[nH]c3ccccc23)C(=O)N[C@@H](CCNC(=O)CC[C@@H](C)[C@H]2CC[C@H]3[C@@H]4[C@H](O)C[C@@H]5C[C@H](O)CC[C@]5(C)[C@H]4C[C@H](O)[C@]23C)C(=O)N[C@@H](Cc2cn(CC(=O)NCC(F)(F)F)c3ccccc23)C(=O)N1C [Example 2010] | 4700 | 
9 | CCCC[C@H]1C(=O)N(C)[C@@H](CCCC)C(=O)N[C@@H](CC(C)C)C(=O)N[C@H](C(=O)NCC(N)=O)CSCC(=O)N[C@@H](Cc2ccc(O)cc2)C(=O)N(C)[C@@H](C)C(=O)N[C@@H](CC(N)=O)C(=O)N2CCC[C@H]2CN[C@@H](CNC(=O)CC[C@@H](C)[C@H]2CC[C@H]3[C@@H]4C(=O)C[C@@H]5CC(=O)CC[C@]5(C)[C@H]4CC(=O)[C@]23C)C(=O)N[C@@H](CC(C)C)C(=O)N2C[C@H](O)C[C@H]2C(=O)N[C@@H](Cc2c[nH]c3ccccc23)C(=O)N[C@@H](CCNC(=O)CC[C@@H](C)[C@H]2CC[C@H]3[C@@H]4C(=O)C[C@@H]5CC(=O)CC[C@]5(C)[C@H]4CC(=O)[C@]23C)C(=O)N[C@@H](Cc2cn(CC(=O)OC3CC3)c3ccccc23)C(=O)N1C [Example 2011] | 35 | 
10 | CCCC[C@H]1C(=O)N(C)[C@@H](CCCC)C(=O)N[C@@H](CC(C)C)C(=O)N[C@H](C(=O)NCC(N)=O)CSCC(=O)N[C@@H](Cc2ccc(O)cc2)C(=O)N(C)[C@@H](C)C(=O)N[C@@H](CC(N)=O)C(=O)N2CCC[C@H]2CN[C@@H](CNC(=O)CC[C@@H](C)[C@H]2CC[C@H]3[C@@H]4C(=O)C[C@@H]5CC(=O)CC[C@]5(C)[C@H]4CC(=O)[C@]23C)C(=O)N[C@@H](CC(C)C)C(=O)N2C[C@H](O)C[C@H]2C(=O)N[C@@H](Cc2c[nH]c3ccccc23)C(=O)N[C@@H](CCNC(=O)CC[C@@H](C)[C@H]2CC[C@H]3[C@@H]4C(=O)C[C@@H]5CC(=O)CC[C@]5(C)[C@H]4CC(=O)[C@]23C)C(=O)N[C@@H](Cc2cn(CC(=O)OC3CC3)c3ccccc23)C(=O)N1C [Example 2012] | 27 | 
11 | CCCCOC(=O)Cn1cc(C[C@@H]2NC(=O)[C@H](CCNC(=O)CC[C@@H](C)[C@H]3CC[C@H]4[C@@H]5C(=O)C[C@@H]6CC(=O)CC[C@]6(C)[C@H]5CC(=O)[C@]34C)NC(=O)[C@H](Cc3c[nH]c4ccccc34)NC(=O)[C@@H]3C[C@@H](O)CN3C(=O)[C@H](CC(C)C)NC(=O)[C@H](CNC(=O)CC[C@@H](C)[C@H]3CC[C@H]4[C@@H]5C(=O)C[C@@H]6CC(=O)CC[C@]6(C)[C@H]5CC(=O)[C@]34C)NC[C@@H]3CCCN3C(=O)[C@H](CC(N)=O)NC(=O)[C@H](C)N(C)C(=O)[C@H](Cc3ccc(O)cc3)NC(=O)CSC[C@@H](C(=O)NCC(N)=O)NC(=O)[C@H](CC(C)C)NC(=O)[C@H](CCCC)N(C)C(=O)[C@H](CCCC)N(C)C2=O)c2ccccc21 [Example 2013] | 41 | 
